Reference: paper PMC3602143 (Bioorganic & medicinal chemistry letters, 2013)

Tests used:
[1] = background statement; cited from earlier work
[2] = tested on: strain of T. gondii engineered to express the bacterial GlpT; settings: ref [22]; cited from earlier work
T. gondii = T. gondii growth / proliferation; format: cell-based, Toxoplasma gondii; settings: previous method of ref [22]
[3] = tested on: bacteria including E. coli; settings: ref [11]; cited from earlier work
[4] = biological target: T1, recombinant T. gondii DXR (TgDXR) (Toxoplasma gondii, UniProt S8ESX0); assay: TgDXR enzyme inhibition assay; format: biochemical; settings: average of acetyl analogs 8 and 9 vs 6 and 7
T1 sequence (S8ESX0 187-632): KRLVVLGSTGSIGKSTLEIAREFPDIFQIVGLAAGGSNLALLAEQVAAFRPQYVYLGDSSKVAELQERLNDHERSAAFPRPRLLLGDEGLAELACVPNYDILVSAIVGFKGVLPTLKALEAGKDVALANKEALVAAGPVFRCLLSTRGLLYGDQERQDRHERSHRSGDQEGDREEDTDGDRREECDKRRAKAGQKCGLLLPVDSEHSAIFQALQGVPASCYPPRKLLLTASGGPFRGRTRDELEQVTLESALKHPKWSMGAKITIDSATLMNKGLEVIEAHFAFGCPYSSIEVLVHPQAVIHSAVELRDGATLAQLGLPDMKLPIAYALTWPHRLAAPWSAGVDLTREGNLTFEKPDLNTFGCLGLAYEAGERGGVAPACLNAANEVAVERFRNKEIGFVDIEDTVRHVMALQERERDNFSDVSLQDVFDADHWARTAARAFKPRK

malaria parasites = settings: ref [16]; cited from earlier work
PfDXR = settings: read-out: Km of PfDXR; substrate DXP; ref [15]; cited from earlier work
[5] = tested on: Mycobacterium tuberculosis DXR; settings: read-out: Km of Mycobacterium tuberculosis DXR; substrate DXP; ref [23]; cited from earlier work
EcDXR = settings: read-out: Km of EcDXR; substrate DXP; ref [13]; cited from earlier work
[6] = substrate: CC(=O)[C@@H](O)[C@H](O)COP(=O)(O)O; assay: TgDXR enzyme inhibition assay; format: biochemical, Toxoplasma gondii; settings: other: DXP 10 to 450 μM, [Mg2+] = 4 mM, Michaelis-Menten fit; 30.0 °C

Molecule: O=CN(O)CCCP(=O)(O)O [Compound 1, Fosmidomycin]
- half-life in plasma [1]: very short
- killing of GlpT-expressing T. gondii [2]: can effectively kill

Molecule: O=c1ccc(-c2ccccc2)cn1O [Compound 5]
- block of proliferation / activity against growth of T. gondii (T. gondii): does not block proliferation
- antibacterial activity [3]: broad antibacterial activity

Molecule: CC(=O)N(O)CCC(c1cccnc1)P(=O)(O)O (stereo not drawn) [Compound 8]
- fold less activity against TgDXR than formyl analogs 6 and 7 [4]: ~ 11 fold

Molecule: CC(=O)N(O)CCC(c1ccncc1)P(=O)(O)O (stereo not drawn) [Compound 9]
- fold less activity against TgDXR than formyl analogs 6 and 7 [4]: ~ 11 fold

Molecule: O=CN(O)CCC(c1ccc(Cl)c(Cl)c1)P(=O)(O)O (stereo not drawn) [Compound 10]
- antimalarial activities (malaria parasites): potent

Molecule: CC(=O)N(O)CCC(c1ccc(Cl)c(Cl)c1)P(=O)(O)O (stereo not drawn) [Compound 11]
- antimalarial activities (malaria parasites): potent

Molecule: CC(=O)[C@@H](O)[C@H](O)COP(=O)(O)O [DXP, 1-deoxy-D-xylulose-5-phosphate]
- Km (PfDXR): 106 µM
- Km [5]: 47 µM
- Km (EcDXR): 99 µM

B1: recombinant T. gondii DXR (TgDXR) (Toxoplasma gondii ME49) (protein)
chain: KRLVVLGSTGSIGKSTLEIAREFPDIFQIVGLAAGGSNLALLAEQVAAFRPQYVYLGDSSKVAELQERLNDHERSAAFPRPRLLLGDEGLAELACVPNYDILVSAIVGFKGVLPTLKALEAGKDVALANKEALVAAGPVFRCLLSTRGLLYGDQERQDRHERSHRSGDQEGDREEDTDGDRREECDKRRAKAGQKCGLLLPVDSEHSAIFQALQGVPASCYPPRKLLLTASGGPFRGRTRDELEQVTLESALKHPKWSMGAKITIDSATLMNKGLEVIEAHFAFGCPYSSIEVLVHPQAVIHSAVELRDGATLAQLGLPDMKLPIAYALTWPHRLAAPWSAGVDLTREGNLTFEKPDLNTFGCLGLAYEAGERGGVAPACLNAANEVAVERFRNKEIGFVDIEDTVRHVMALQERERDNFSDVSLQDVFDADHWARTAARAFKPRK
- Km [6]: 25.5 ± 3.7 µM
